From patent US10968203B2, “Pyrimidinyl-pyridyloxy-naphthyl compounds and methods of treating IRE1-related diseases and disorders” (Genentech, Inc., priority 2017, dated 2021) come the findings set out here.

Each structure is given as a SMILES string. Where a name gives a salt, the structure may show the parent alone. Read-outs that look alike come from different tables or passages of the source.

The subject of the experiment is XBP1s-luc 293 LUC. Nature of the experiment: cellular PD assay, XBP1s-LUC reporter (Example 903). Particulars: read-out: XBP1s-luc 293 LUC (IC50). Format: cell-based. The gist of the method:
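A luciferase fusion, in frame and expressed only when the XBP1 transcript is spliced, served as the readout of cellular IRE1α activity in an XBP1-Luc reporter line.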

Regarding `Cc1ccc2c(NC(=O)[C@@H]3C[C@H]3C)cccc2c1Oc1ncccc1-c1ccnc(N[C@H]2CCCNC2)n1` [Example 232, (1R,2R)-2-Methyl-N-(6-methyl-5-((3-(2-(((S)-piperidin-3-yl)amino)pyrimidin-4-yl)pyridin-2-yl)oxy)naphthalen-1-yl)cyclopropane-1-carboxamide], the half-maximal inhibitory concentration (IC50) (Table 1) was determined as 136 nM.

On to `CCCS(=O)(=O)Nc1c(F)ccc2c(Oc3ncccc3-c3ccnc(N[C@@H]4CNC[C@H](C)C4)n3)c(C)ccc12` [Example 367, N-(2-Fluoro-6-methyl-5-((3-(2-(((3S,5R)-5-methylpiperidin-3-yl)amino)pyrimidin-4-yl)pyridin-2-yl)oxy)naphthalen-1-yl)propane-1-sulfonamide], for which the IC50 (Table 1) was found to be 14.5 nM.

As to `Cc1ccc2c(NC(=O)[C@H]3CC3(C)C)cccc2c1Oc1ncccc1-c1ccnc(N[C@H]2CCCNC2)n1` (single isomer, unassigned) [Example 288], the IC50 (Table 1) was 185 nM.

On to `Cc1ccc2c(NC(=O)[C@@H]3CC34CCC4)c(F)ccc2c1Oc1ncccc1-c1ccnc(N[C@H]2CCCNC2)n1` (single isomer, unassigned) [Example 387], for which the IC50 (Table 1) worked out at 28.3 nM.

In the case of `Cc1ccc2c(NS(=O)(=O)CC(C)C)cccc2c1Oc1ncccc1-c1ccnc(N[C@@H]2CNC[C@H](C)C2)n1` [Example 304, 2-Methyl-N-(6-methyl-5-((3-(2-(((3S,5R)-5-methylpiperidin-3-yl)amino)pyrimidin-4-yl)pyridin-2-yl)oxy)naphthalen-1-yl)propane-1-sulfonamide], the IC50 (Table 1) is 105 nM.

Regarding `CCc1cnn(-c2cccc3c(Oc4ncccc4-c4ccnc(N[C@H]5CCCNC5)n4)c(C)ccc23)c1` [Example 290, (S)-4-(2-((5-(4-Ethyl-1H-pyrazol-1-yl)-2-methylnaphthalen-1-yl)oxy)pyridin-3-yl)-N-(piperidin-3-yl)pyrimidin-2-amine], the IC50 (Table 1) amounted to 409 nM.

On to `Cc1ccc2c(N3CCC(C)(C)C3=O)cccc2c1Oc1ncccc1-c1ccnc(N[C@H]2CCCNC2)n1` [Example 238, (S)-3,3-Dimethyl-1-(6-methyl-5-((3-(2-(piperidin-3-ylamino)pyrimidin-4-yl)pyridin-2-yl)oxy)naphthalen-1-yl)pyrrolidin-2-one], for which the IC50 (Table 1) is 275 nM.

On to `Cc1ccc2c(NC(=O)C3(C(F)(F)F)CC3)cccc2c1Oc1ncccc1-c1ccnc(N[C@H]2CCCNC2)n1` [Example 220, (S)—N-(6-Methyl-5-(3-(2-(piperidin-3-ylamino)pyrimidin-4-yl)pyridin-2-yloxy)naphthalen-1-yl)-1-(trifluoromethyl)cyclopropanecarboxamide], for which, under “Table 1”, the IC50 was 309 nM.

Consider `Cc1ccc2c(NC(C)c3cscn3)cccc2c1Oc1ncccc1-c1ccnc(N[C@H]2CCCNC2)n1` (single isomer, unassigned) [Example 295], for which the IC50 (Table 1) was determined as 209 nM.

Take `Cc1ccc2c(NS(=O)(=O)CC3(F)CC3)c(F)ccc2c1Oc1ncccc1-c1ccnc(N[C@@H]2CNC[C@H](C)C2)n1` [Example 487, N-(2-Fluoro-6-methyl-5-((3-(2-(((3S,5R)-5-methylpiperidin-3-yl)amino)pyrimidin-4-yl)pyridin-2-yl)oxy)naphthalen-1-yl)-1-(1-fluorocyclopropyl)methanesulfonamide hydrochloride]: the IC50 (Table 2) is 9 nM.

Take `Cc1ccc2c(NS(=O)(=O)C[C@@H]3CCC3(F)F)c(F)ccc2c1Oc1ncccc1-c1ccnc(N[C@H]2CCCNC2)n1` (single isomer, unassigned) [Example 470, hydrochloride]: the IC50 (Table 2) came to 24 nM.

In the case of `Cc1ccc2c(NC(=O)C3CCCC3(F)F)cccc2c1Oc1ncccc1-c1ccnc(N[C@H]2CCCNC2)n1` (stereo partly drawn) [Example 251, 2,2-Difluoro-N-(6-methyl-5-((3-(2-(((S)-piperidin-3-yl)amino)pyrimidin-4-yl)pyridin-2-yl)oxy)naphthalen-1-yl)cyclopentane-1-carboxamide], for the setting “Table 1”, the IC50 was found to be 145 nM.

For the compound `Cc1ccc2c(NC(=O)C3CC3C(C)C)cccc2c1Oc1ncccc1-c1ccnc(N[C@H]2CCCNC2)n1` (single isomer, unassigned) [Example 229], the IC50 (Table 1) came out at 454 nM.

Take `Cc1ccc2c(-c3ccccn3)cccc2c1Oc1ncccc1-c1ccnc(N[C@H]2CCCNC2)n1` [Example 353, (S)-4-(2-((2-Methyl-5-(pyridin-2-yl)naphthalen-1-yl)oxy)pyridin-3-yl)-N-(piperidin-3-yl)pyrimidin-2-amine]: the IC50 (Table 1) came to 133 nM.

Take `Cc1ccc2c(NC(=O)C3CC34CCCCC4)cccc2c1Oc1ncccc1-c1ccnc(N[C@H]2CCCNC2)n1` (mixture of isomers) [Example 281, N-(6-Methyl-5-((3-(2-(((S)-piperidin-3-yl)amino)pyrimidin-4-yl)pyridin-2-yl)oxy)naphthalen-1-yl)spiro[2.5]octane-1-carboxamide]: the half-maximal inhibitory concentration (IC50) (Table 1) turned out to be 89 nM.

With `Cc1ccc2c(NS(=O)(=O)Cc3ccccc3)cccc2c1Oc1ncccc1-c1ccnc(N[C@H]2CCCNC2)n1` [Example 112, (S)—N-(6-Methyl-5-((3-(2-(piperidin-3-ylamino)pyrimidin-4-yl)pyridin-2-yl)oxy)naphthalen-1-yl)-1-phenylmethanesulfonamide hydrochloride], the IC50 (Table 1) worked out at 21 nM.

`Cc1ccc2c(NC(=O)CC3CC4CCC3C4)cccc2c1Oc1ncccc1-c1ccnc(N[C@H]2CCCNC2)n1` (stereo partly drawn) [Example 286, 2-(Bicyclo[2.2.1]heptan-2-yl)-N-(6-methyl-5-((3-(2-((S)-piperidin-3-ylamino)pyrimidin-4-yl)pyridin-2-yl)oxy)naphthalen-1-yl)acetamide]: the IC50 (Table 1) was found to be 174 nM.

For `Cc1cc(CS(=O)(=O)Nc2c(F)ccc3c(Oc4ncccc4-c4ccnc(N[C@@H]5CNC[C@@H](F)C5)n4)c(C)ccc23)no1` (single isomer, unassigned) [Example 468, hydrochloride], the IC50 (Table 2) was determined as 10 nM.

For `Cc1ccc2c(NCc3cnn(C)c3)cccc2c1Oc1ncccc1-c1ccnc(N[C@H]2CCCNC2)n1` [Example 265, (S)-4-(2-((2-Methyl-5-(((1-methyl-1H-pyrazol-4-yl)methyl)amino)naphthalen-1-yl)oxy)pyridin-3-yl)-N-(piperidin-3-yl)pyrimidin-2-amine], under “Table 1”, the IC50 was determined as 393 nM.

Turning to `Cc1ccc2c(NS(=O)(=O)Cc3ccccc3F)c(F)ccc2c1Oc1ncccc1-c1ccnc(N[C@@H]2CNC[C@@H](F)C2)n1` (single isomer, unassigned) [Example 464, hydrochloride], the IC50 (Table 2) was determined as 4 nM.

As to `Cc1ccc2c(NS(=O)(=O)Cc3ccccc3F)cccc2c1Oc1ncccc1-c1ccnc(N[C@H]2CCCNC2)n1` [Example 145, (S)-1-(2-Fluorophenyl)-N-(6-methyl-5-((3-(2-(piperidin-3-ylamino)pyrimidin-4-yl)pyridin-2-yl)oxy)naphthalen-1-yl)methanesulfonamide], the IC50 (Table 1) came out at 15 nM.

Take `Cc1ccc2c(NS(=O)(=O)CCC(C)C)c(F)ccc2c1Oc1ncccc1-c1ccnc(N[C@H]2CCCNC2)n1` [Example 243, (S)—N-(2-Fluoro-6-methyl-5-((3-(2-(piperidin-3-ylamino)pyrimidin-4-yl)pyridin-2-yl)oxy)naphthalen-1-yl)-3-methylbutane-1-sulfonamide]: the IC50 (Table 1) was determined as 68 nM.

As for `Cc1ccc2c(NS(=O)(=O)C3CCCCC3)c(F)ccc2c1Oc1ncccc1-c1ccnc(N[C@H]2CCCNC2)n1` [Example 282, (S)—N-(2-Fluoro-6-methyl-5-((3-(2-(piperidin-3-ylamino)pyrimidin-4-yl)pyridin-2-yl)oxy)naphthalen-1-yl)cyclohexanesulfonamide], where the note is “Table 1”, the IC50 turned out to be 24.8 nM.

On to `Cc1ccc2c(NCCCC(F)(F)F)cccc2c1Oc1ncccc1-c1ccnc(N[C@H]2CCCNC2)n1` [Example 344, (S)-4-(2-((2-Methyl-5-((4,4,4-trifluorobutyl)amino)naphthalen-1-yl)oxy)pyridin-3-yl)-N-(piperidin-3-yl)pyrimidin-2-amine], for which, for the setting “Table 1”, the IC50 turned out to be 350 nM.

Regarding `CCO[C@@H](CNc1cccc2c(Oc3ncccc3-c3ccnc(N[C@H]4CCCNC4)n3)c(C)ccc12)C(F)(F)F` [Example 445, 4-(2-((5-(((S)-2-Ethoxy-3,3,3-trifluoropropyl)amino)-2-methylnaphthalen-1-yl)oxy)pyridin-3-yl)-N—((S)-piperidin-3-yl)pyrimidin-2-amine hydrochloride], the IC50 (Table 2) came out at 78 nM.

Consider `Cc1ccc2c(N3CC[C@H](CF)C3=O)cccc2c1Oc1ncccc1-c1ccnc(N[C@H]2CCCNC2)n1` [Example 316, (S)-3-(Fluoromethyl)-1-(6-methyl-5-((3-(2-(((S)-piperidin-3-yl)amino)pyrimidin-4-yl)pyridin-2-yl)oxy)naphthalen-1-yl)pyrrolidin-2-one], for which the IC50 (Table 1) was 213 nM.

Take `Cc1ccc2c(NS(=O)(=O)CC3CC3)c(F)ccc2c1Oc1ncccc1-c1ccnc(N[C@H]2CCCNC2)n1` [Example 405, (S)-1-Cyclopropyl-N-(2-fluoro-6-methyl-5-((3-(2-(piperidin-3-ylamino)pyrimidin-4-yl)pyridin-2-yl)oxy)naphthalen-1-yl)methanesulfonamide hydrochloride]: where the note is “Table 2”, the IC50 is 25 nM.

On to `CC[C@@H]1CCN(c2cccc3c(Oc4ncccc4-c4ccnc(N[C@H]5CCCNC5)n4)c(C)ccc23)C1=O` (single isomer, unassigned) [Example 266], for which the IC50 (Table 1) came out at 121 nM.

`Cc1ccc2c(NCCC(C)(C)C#N)cccc2c1Oc1ncccc1-c1ccnc(N[C@H]2CCCNC2)n1` [Example 347, (S)-2,2-Dimethyl-4-((6-methyl-5-((3-(2-(piperidin-3-ylamino)pyrimidin-4-yl)pyridin-2-yl)oxy)naphthalen-1-yl)amino)butanenitrile]: the IC50 (Table 1) worked out at 48 nM.

`COCCCS(=O)(=O)Nc1cccc2c(Oc3ncccc3-c3ccnc(N[C@H]4CCCNC4)n3)c(C)ccc12` [Example 132, (S)-3-Methoxy-N-(6-methyl-5-((3-(2-(piperidin-3-ylamino)pyrimidin-4-yl)pyridin-2-yl)oxy)naphthalen-1-yl)propane-1-sulfonamide hydrochloride]: the IC50 (Table 1) is 365 nM.

In general, IC50 refers to the concentration that inhibits the measured activity by half.
